Data on 26 compounds can be found in patent US20070049593A1 (priority 2004, published 2007).

pIC50: −log10 of the molar value. Counter-ions that a name gives are not always drawn.

This assay addresses T1, HCV polymerase (Hepatitis C virus genotype 1b, UniProt P26663).
T1 construct: a region encoding NS5B (J Virol 1991 March, 65(3), 1105-13, 544 amino acids after deletion of 47 amino acids on the C-terminal); 6xHis (C); made in house; host or cells: Escherichia coli
The assay is described as follows: biochemical. More on the design: species or system HCV BK strain. The gist of the method:
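His-tagged NS5B (BK strain, 47-aa C-terminal deletion, E. coli-expressed) at 0.5 μg/ml copied 5 μg/ml run-off RNA bearing the HCV 3′ UTR with 2 μM UTP plus [3H]UTP, 50 μM ATP/GTP, in pH 7.5 Tris with 5 mM MgCl2, 25 °C, 90 min. TCA-precipitated RNA was counted and IC50 calculated.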

T1 sequence (P26663 2420-2963): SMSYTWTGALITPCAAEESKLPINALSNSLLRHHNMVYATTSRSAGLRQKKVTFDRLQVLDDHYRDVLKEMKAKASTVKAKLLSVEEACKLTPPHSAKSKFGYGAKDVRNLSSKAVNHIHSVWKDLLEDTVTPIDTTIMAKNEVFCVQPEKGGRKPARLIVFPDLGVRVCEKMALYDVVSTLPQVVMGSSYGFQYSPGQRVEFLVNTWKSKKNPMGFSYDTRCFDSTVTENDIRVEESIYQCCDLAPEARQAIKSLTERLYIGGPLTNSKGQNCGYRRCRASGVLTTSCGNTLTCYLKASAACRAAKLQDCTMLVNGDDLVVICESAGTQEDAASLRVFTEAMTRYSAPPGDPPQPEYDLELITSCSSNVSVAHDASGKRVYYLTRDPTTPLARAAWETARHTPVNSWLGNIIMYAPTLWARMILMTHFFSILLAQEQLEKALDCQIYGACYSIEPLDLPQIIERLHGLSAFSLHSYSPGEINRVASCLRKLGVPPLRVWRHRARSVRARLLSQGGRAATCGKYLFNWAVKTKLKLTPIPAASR

On to `CCC1COCCN1CCN1CCn2c(c(C3CCCCC3)c3ccc(C(=O)O)cc32)-c2ccc(Cl)cc21` (centres unmarked) [Example 1-327, 3-chloro-13-cyclohexyl-5-[2-(3-ethylmorpholin-4-yl)ethyl]-6,7-dihydro-5H-benzo[5,6][1,4]diazepino[7,1-a]indole-10-carboxylic acid dihydrochloride], for which the negative logarithm of the IC50 (pIC50) (usually the negative decadic logarithm of the IC50, by convention in mol/L) was more than 7.00. In turn, `CN(CCN1CCn2c(c(C3CCCCC3)c3ccc(C(=O)O)cc32)-c2ccccc21)C1CCCC1` [Example 1-319, 13-cyclohexyl-5-[2-(N-cyclopentyl-N-methylamino)ethyl]-6,7-dihydro-5H-benzo[5,6][1,4]diazepino[7,1-a]indole-10-carboxylic acid] gave a pIC50 of more than 7.00. Under `Cc1ccc2c(c1)N(CCC13CCC(CC1)N3)CCn1c-2c(C2CCCCC2)c2ccc(C(=O)O)cc21` [Example 1-488, 5-[2-(7-azabicyclo[2.2.1]hept-1-yl)ethyl]-13-cyclohexyl-3-methyl-6,7-dihydro-5H-benzo[5,6][1,4]diazepino[7,1-a]indole-10-carboxylic acid monohydrochloride] stands more than 7.00; under `O=C(O)c1ccc2c(C3CCCCC3)c3n(c2c1)CC(=O)N(CCN1CCCCC1)c1ccccc1-3` [Example 1-235, 13-cyclohexyl-6-oxo-5-[2-(piperidin-1-yl)ethyl]-6,7-dihydro-5H-benzo[5,6][1,4]diazepino[7,1-a]indole-10-carboxylic acid monohydrochloride], more than 7.00; under `O=C(O)c1ccc2c(C3CCCCC3)c3n(c2c1)CCN(CC(=O)N1CCc2ccccc2C1)c1ccccc1-3` [Example 1-138, 13-cyclohexyl-5-[2-(3,4-dihydro-1H-isoquinolin-2-yl)-2-oxoethyl]-6,7-dihydro-5H-benzo[5,6][1,4]diazepino[7,1-a]indole-10-carboxylic acid monohydrochloride], more than 7.00. Compound `O=C(O)c1ccc2c(C3CCCCC3)c3n(c2c1)CCN(CCN1CCOCC1)c1cc(F)ccc1-3` [Example 1-107, 13-cyclohexyl-3-fluoro-5-[2-(morpholin-4-yl)ethyl]-6,7-dihydro-5H-benzo[5,6][1,4]diazepino[7,1-a]indole-10-carboxylic acid dihydrochloride] showed a negative logarithm of the IC50 (pIC50) of more than 7.00. In turn, `CCC1CCCN(CCCN2CCn3c(c(C4CCCCC4)c4ccc(C(=O)O)cc43)-c3ccc(Cl)cc32)C1` (centres unmarked) [Example 1-372, 3-chloro-13-cyclohexyl-5-[3-(3-ethylpiperidin-1-yl)propyl]-6,7-dihydro-5H-benzo[5,6][1,4]diazepino[7,1-a]indole-10-carboxylic acid dihydrochloride] had a negative-log IC50 (pIC50) of more than 7.00. On to `O=C(O)c1ccc2c(C3CCCCC3)c3n(c2c1)CCNc1ccccc1-3` [Example 1-3, 13-cyclohexyl-6,7-dihydro-5H-benzo[5,6][1,4]diazepino[7,1-a]indole-10-carboxylic acid monohydrochloride], for which the pIC50 was more than 7.00.

In turn, `CCOC(=O)[C@H](Cc1ccc(O)cc1)NC(=O)c1ccc2c(C3CCCCC3)c3n(c2c1)CCOc1cc(OC)ccc1-3` [Example 2-435, ethyl (S)-2-[(12-cyclohexyl-3-methoxy-6,7-dihydro-5-oxa-7a-azadibenzo[a,e]azulene-9-carbonyl)amino]-3-(4-hydroxyphenyl)propionate] showed a negative-log IC50 (pIC50) of more than 7.00. In the case of `O=C(O)CN1CCC(NC(=O)c2ccc3c(C4CCCCC4)c4n(c3c2)CCOc2ccccc2-4)(C(=O)O)CC1` [Example 2-229, 1-carboxymethyl-4-[(12-cyclohexyl-6,7-dihydro-5-oxa-7a-azadibenzo[a,e]azulene-9-carbonyl)amino]piperidine-4-carboxylic acid monohydrochloride], the negative-log IC50 (pIC50) was more than 7.00.

`Cn1c(C(C)(C)NC(=O)c2ccc3c(C4CCCCC4)c4n(c3c2)CCOc2ccccc2-4)nc2ccc(C(=O)O)cc21` [Example 2-337, 2-{1-[(12-cyclohexyl-6,7-dihydro-5-oxa-7a-azadibenzo[a,e]azulene-9-carbonyl)amino]-1-methylethyl}-3-methyl-3H-benzimidazole-5-carboxylic acid] gave a pIC50 of more than 7.00.

Compound `Cc1ccc2c(c1)N(CCN1CCC[C@@H](CCN3CCCC3=O)C1)CCn1c-2c(C2CCCCC2)c2ccc(C(=O)O)cc21` [Example 1-566, 13-cyclohexyl-3-methyl-5-(2-{(S)-3-[2-(2-oxopyrrolidin-1-yl)ethyl]piperidin-1-yl]ethyl}-6,7-dihydro-5H-benzo[5,6][1,4]diazepino[7,1-a]indole-10-carboxylic acid dihydrochloride] gave a pIC50 of more than 7.00. `O=C(O)c1ccc2c(C3CCCCC3)c3n(c2c1)CCN(CC(=O)N1CCN(c2ccccc2)CC1)c1ccccc1-3` [Example 1-81, 13-cyclohexyl-5-[2-oxo-2-(4-phenylpiperazin-1-yl)ethyl]-6,7-dihydro-5H-benzo[5,6][1,4]diazepino[7,1-a]indole-10-carboxylic acid dihydrochloride] gave a pIC50 of more than 7.00. On to `CCN1CCCCC1CCN1CCn2c(c(C3CCCCC3)c3ccc(C(=O)O)cc32)-c2ccccc21` (centres unmarked) [Example 1-178, 13-cyclohexyl-5-[2-(1-ethylpiperidin-2-yl)ethyl]-6,7-dihydro-5H-benzo[5,6][1,4]diazepino[7,1-a]indole-10-carboxylic acid dihydrochloride], for which the negative logarithm of the IC50 (pIC50) was more than 7.00.

Compound `O=C(O)c1ccc2c(C3CCCCC3)c3n(c2c1)CCN(CCN1CCCCCC1)c1cc(Cl)ccc1-3` [Example 1-217, 5-[2-(azepan-1-yl)ethyl]-3-chloro-13-cyclohexyl-6,7-dihydro-5H-benzo[5,6][1,4]diazepino[7,1-a]indole-10-carboxylic acid dihydrochloride] gave a pIC50 of more than 7.00. Under `CC(C)(NC(=O)c1ccc2c(C3CCCCC3)c3n(c2c1)CCOc1ccccc1-3)C1CCC(C(=O)O)CC1` (centres unmarked) [Example 2-208, 4-{1-[(12-cyclohexyl-6,7-dihydro-5-oxa-7a-azadibenzo[a,e]azulene-9-carbonyl)amino]-1-methylethyl}cyclohexanecarboxylic acid] stands 6.00 to 7.00; under `O=C(O)c1ccc2c(C3CCCCC3)c3n(c2c1)CCN(CC(=O)N1CCC(O)CC1)c1ccccc1-3` [Example 1-35, 13-cyclohexyl-5-[2-(4-hydroxypiperidin-1-yl)-2-oxoethyl]-6,7-dihydro-5H-benzo[5,6][1,4]diazepino[7,1-a]indole-10-carboxylic acid monohydrochloride], more than 7.00.

In turn, `CCN(CCCOC)CCN1CCn2c(c(C3CCCCC3)c3ccc(C(=O)O)cc32)-c2ccc(C)cc21` [Example 1-531, 13-cyclohexyl-5-{2-[N-ethyl-N-(3-methoxypropyl)amino]ethyl}-3-methyl-6,7-dihydro-5H-benzo[5,6][1,4]diazepino[7,1-a]indole-10-carboxylic acid dihydrochloride] gave a negative logarithm of the IC50 (pIC50) of more than 7.00. Consider `CCOc1ccc2c(c1)N(C)CCn1c-2c(C2CCCCC2)c2ccc(C(=O)NC3(C(=O)Nc4ccc(C)c(/C=C/C(=O)O)c4)CCC3)cc21` [Example 1-620, (E)-3-[5-({1-[(13-cyclohexyl-3-ethoxy-5-methyl-6,7-dihydro-5H-benzo[5,6][1,4]diazepino[7,1-a]indole-10-carbonyl)amino]cyclobutanecarbonyl}amino)-2-methylphenyl]acrylic acid], for which the negative-log IC50 (pIC50) was more than 7.00. `O=C(O)c1ccc2c(C3CCCCC3)c3n(c2c1)CCOc1c-3cccc1N(CC(=O)N1CCCOCC1)CC(=O)N1CCCOCC1` [Example 2-357, 4-{bis[2-(1,4-oxazepan-4-yl)-2-oxoethyl]amino}-12-cyclohexyl-6,7-dihydro-5-oxa-7a-azadibenzo[a,e]azulene-9-carboxylic acid] gave a pIC50 of more than 7.00. `CCC1CCCN(CCN2CCn3c(c(C4CCCCC4)c4ccc(C(=O)O)cc43)-c3ccc(Cl)cc32)C1` (centres unmarked) [Example 1-249, 3-chloro-13-cyclohexyl-5-[2-(3-ethylpiperidin-1-yl)ethyl]-6,7-dihydro-5H-benzo[5,6][1,4]diazepino[7,1-a]indole-10-carboxylic acid dihydrochloride]: the pIC50 was more than 7.00. `O=C(O)c1ccc2c(C3CCCCC3)c3n(c2c1)CCN(CC(=O)N1CCCCCCC1)c1ccccc1-3` [Example 1-131, 5-[2-(azocan-1-yl)-2-oxoethyl]-13-cyclohexyl-6,7-dihydro-5H-benzo[5,6][1,4]diazepino[7,1-a]indole-10-carboxylic acid] had a negative logarithm of the IC50 (pIC50) of more than 7.00. `CC(C)(CNC(=O)c1ccc(C(=O)O)cc1)NC(=O)c1ccc2c(C3CCCCC3)c3n(c2c1)CCOc1ccccc1-3` [Example 2-211, N-{2-[(12-cyclohexyl-6,7-dihydro-5-oxa-7a-azadibenzo[a,e]azulene-9-carbonyl)amino]-2-methylpropyl}terephthalamic acid] showed a negative-log IC50 (pIC50) of 6.00 to 7.00.

`CCC(CC)N1CCCC(CCN2CCn3c(c(C4CCCCC4)c4ccc(C(=O)O)cc43)-c3ccc(Cl)cc32)C1` (centres unmarked) [Example 1-386, 3-chloro-13-cyclohexyl-5-{2-[1-(1-ethylpropyl)piperidin-3-yl]ethyl}-6,7-dihydro-5H-benzo[5,6][1,4]diazepino[7,1-a]indole-10-carboxylic acid dihydrochloride]: the negative logarithm of the IC50 (pIC50) is more than 7.00. In turn, `CC(C)(NC(=O)c1ccc2c(C3CCCCC3)c3n(c2c1)CCOc1ccccc1-3)C(=O)Nc1cccc(O)c1` [Example 2-260, N-[1-(3-hydroxyphenylcarbamoyl)-1-methylethyl]-12-cyclohexyl-6,7-dihydro-5-oxa-7a-azadibenzo[a,e]azulene-9-carboxamide] had a pIC50 of more than 7.00.

For the compound `O=C(O)c1ccc2c(C3CCCCC3)c3n(c2c1)CC(=O)N(CC(=O)N1CCOCC1)c1ccccc1-3` [Example 1-210, 13-cyclohexyl-5-[2-(morpholin-4-yl)-2-oxoethyl]-6-oxo-6,7-dihydro-5H-benzo[5,6][1,4]diazepino[7,1-a]indole-10-carboxylic acid], the pIC50 was more than 7.00.
